Broadly, the pIC50 is −log10 of the IC50, conventionally taken in molar units. Read a high pIC50 as a small IC50.

pIC50: −log10 of the molar value.

The target in this test is human ACC2 (Homo sapiens (Human), UniProt O00763). In words: ACC2 assay, spectrophotometric 384 well assay (NADH-linked kinetic method). Type of test: biochemical. The conditions noted are these: human ACC2 construct lacking the 128 N-terminal amino acids; coupled lactate dehydrogenase/pyruvate kinase reaction, 340 nm, 25° C. The gist of the method: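 ADP formation was monitored as NADH consumption at 340 nm for 15 min at 25 °C, using baculovirus-expressed human ACC2 missing its first 128 amino acids, with 500 μM ATP and 2000 μM each of acetyl-CoA and NADH (final). IC50 was fitted by non-linear regression on low-control-subtracted slopes.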
human ACC2, sequence (O00763 129-2458): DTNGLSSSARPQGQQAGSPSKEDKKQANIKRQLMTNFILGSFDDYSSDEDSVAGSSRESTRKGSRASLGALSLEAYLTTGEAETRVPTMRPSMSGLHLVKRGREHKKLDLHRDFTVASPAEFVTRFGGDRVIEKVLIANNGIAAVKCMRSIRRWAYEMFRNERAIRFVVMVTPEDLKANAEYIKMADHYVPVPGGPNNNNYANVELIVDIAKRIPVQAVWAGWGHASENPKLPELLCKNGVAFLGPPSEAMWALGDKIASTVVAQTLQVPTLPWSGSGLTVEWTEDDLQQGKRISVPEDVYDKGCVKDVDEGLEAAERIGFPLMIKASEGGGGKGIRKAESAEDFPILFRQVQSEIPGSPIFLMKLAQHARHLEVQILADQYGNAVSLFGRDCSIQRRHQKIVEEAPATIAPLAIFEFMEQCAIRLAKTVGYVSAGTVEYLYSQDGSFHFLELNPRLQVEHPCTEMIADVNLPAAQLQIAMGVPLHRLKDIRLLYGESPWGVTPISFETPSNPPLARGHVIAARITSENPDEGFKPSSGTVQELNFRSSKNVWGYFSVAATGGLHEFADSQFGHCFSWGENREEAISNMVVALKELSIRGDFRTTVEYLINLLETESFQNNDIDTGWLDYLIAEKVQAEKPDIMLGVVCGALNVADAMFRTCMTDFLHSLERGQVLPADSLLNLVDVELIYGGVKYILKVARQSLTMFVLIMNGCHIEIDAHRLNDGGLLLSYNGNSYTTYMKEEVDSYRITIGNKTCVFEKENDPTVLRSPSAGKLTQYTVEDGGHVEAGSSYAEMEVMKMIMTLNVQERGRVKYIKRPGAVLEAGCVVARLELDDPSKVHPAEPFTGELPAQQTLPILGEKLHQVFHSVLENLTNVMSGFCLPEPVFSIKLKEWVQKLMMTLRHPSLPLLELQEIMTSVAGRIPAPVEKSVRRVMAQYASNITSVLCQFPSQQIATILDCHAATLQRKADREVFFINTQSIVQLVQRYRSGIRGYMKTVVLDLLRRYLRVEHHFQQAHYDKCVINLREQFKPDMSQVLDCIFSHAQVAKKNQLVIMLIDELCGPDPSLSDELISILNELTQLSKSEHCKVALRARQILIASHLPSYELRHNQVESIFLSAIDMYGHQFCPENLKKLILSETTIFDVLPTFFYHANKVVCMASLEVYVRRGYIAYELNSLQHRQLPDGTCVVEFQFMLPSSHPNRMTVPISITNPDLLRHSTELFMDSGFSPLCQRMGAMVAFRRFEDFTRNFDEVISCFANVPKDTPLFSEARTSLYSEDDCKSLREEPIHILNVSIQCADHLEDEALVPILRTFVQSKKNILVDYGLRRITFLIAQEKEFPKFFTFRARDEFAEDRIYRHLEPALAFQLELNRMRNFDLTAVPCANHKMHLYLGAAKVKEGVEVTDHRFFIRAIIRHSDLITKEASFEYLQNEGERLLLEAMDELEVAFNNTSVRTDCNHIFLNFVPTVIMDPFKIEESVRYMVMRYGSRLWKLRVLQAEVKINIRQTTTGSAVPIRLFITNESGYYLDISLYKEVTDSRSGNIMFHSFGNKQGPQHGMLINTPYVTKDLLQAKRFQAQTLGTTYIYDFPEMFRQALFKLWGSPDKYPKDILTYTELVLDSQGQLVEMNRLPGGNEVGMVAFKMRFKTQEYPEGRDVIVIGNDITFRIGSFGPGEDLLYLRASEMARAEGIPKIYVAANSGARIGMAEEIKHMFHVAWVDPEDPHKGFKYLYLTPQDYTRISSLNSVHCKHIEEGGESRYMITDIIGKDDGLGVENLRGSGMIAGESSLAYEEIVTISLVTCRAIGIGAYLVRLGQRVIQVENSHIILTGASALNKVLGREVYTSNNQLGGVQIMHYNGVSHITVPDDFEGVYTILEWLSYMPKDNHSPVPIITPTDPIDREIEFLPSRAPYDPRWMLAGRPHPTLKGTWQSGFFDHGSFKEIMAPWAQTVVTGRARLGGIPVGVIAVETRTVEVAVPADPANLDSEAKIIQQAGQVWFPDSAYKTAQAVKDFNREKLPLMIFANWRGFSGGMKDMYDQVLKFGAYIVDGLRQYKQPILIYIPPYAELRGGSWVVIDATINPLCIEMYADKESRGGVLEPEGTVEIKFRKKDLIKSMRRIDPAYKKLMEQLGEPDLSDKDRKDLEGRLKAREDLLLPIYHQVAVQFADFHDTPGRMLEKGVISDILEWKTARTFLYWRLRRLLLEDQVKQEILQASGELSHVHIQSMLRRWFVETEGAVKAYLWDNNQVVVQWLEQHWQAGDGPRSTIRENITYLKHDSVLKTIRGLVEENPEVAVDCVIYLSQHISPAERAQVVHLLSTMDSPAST
Turning to `Cc1c(N2CC[C@@H](Oc3ccc([C@H](C)NC(=O)/C=C/C4CC4)cc3)C2)ccnc1OCC1CC1` [Example 9.59], the pIC50 was 6.63.

For the compound `CC(=O)N[C@@H](C)c1ccc(O[C@@H]2CCN(c3ccnc(OCC4CC4(F)F)c3C)C2)cc1` (some centres unmarked) [Example 9.60], the pIC50 was 7.40. With `CC(=O)N[C@@H](C)c1ccc(O[C@@H]2CCN(c3ccnc(OCC4CC(F)(F)C4)c3)C2)cc1` [Example 9.61] the figure was 7.19; with `CC(=O)N[C@@H](C)c1ccc(O[C@@H]2CCN(c3ccnc(OCC4CC4(F)F)c3F)C2)cc1` (some centres unmarked) [Example 9.62], 7.36; with `C[C@H](NC(=O)c1cncs1)c1ccc(O[C@@H]2CCN(c3ccnc(OCC4CC4)c3)C2)cc1` [Example 9.63], 7.26. As for `CCCOc1cc(N2CC[C@@H](Oc3ccc([C@H](C)NC(=O)c4cncs4)cc3)C2)ccn1` [Example 9.64], the pIC50 was 7.46. This pIC50 lies 0.20 log units higher than the previous one.

Compound `C[C@H](NC(=O)c1cncs1)c1ccc(O[C@@H]2CCN(c3ccnc(OC4CCOC4)c3)C2)cc1` (some centres unmarked) [Example 9.65] had a pIC50 of 7.07. For the compound `CC(=O)N[C@@H](C)c1ccc(O[C@@H]2CCN(c3ccnc(OCC(F)F)c3OCC(F)F)C2)cc1` [Example 9.66], the pIC50 was 6.21. Against the preceding compound, the pIC50 is 0.86 log units lower. Then `CC(=O)N[C@@H](C)c1ccc(O[C@@H]2CCN(c3nccc(OCC4CC4)c3F)C2)cc1` [Example 9.67], with 6.84. In the case of `CCCOc1ccnc(N2CC[C@@H](Oc3ccc([C@H](C)NC(C)=O)cc3)C2)c1F` [Example 9.68], the pIC50 was 6.60. `CCOc1ccnc(N2CC[C@@H](Oc3ccc([C@H](C)NC(C)=O)cc3)C2)c1F` [Example 9.69] gave a pIC50 of 6.22. `CC(=O)N[C@@H](C)c1ccc(O[C@@H]2CCN(c3cc(OCC(F)F)ncc3F)C2)cc1` [Example 9.70]: the pIC50 was 6.91. With `CC(=O)N[C@@H](C)c1ccc(O[C@@H]2CCN(c3ccnc(OCC4CC4(F)F)c3Cl)C2)cc1` (some centres unmarked) [Example 9.71] the figure was 7.35. In turn, `CC(=O)N[C@@H](C)c1ccc(O[C@@H]2CCN(c3ccnc(OCC(F)F)c3Cl)C2)cc1` [Example 9.72] gave a pIC50 of 7.10. Then `CCC(=O)Nc1nc(C)c(C(=O)N[C@@H](C)c2ccc(O[C@@H]3CCN(c4ccnc(OCC5CC5)c4Cl)C3)cc2)s1` [Example 9.73], with 7.35; and `CC(=O)N[C@@H](C)c1ccc(O[C@@H]2CCN(c3ccnc(OCC(C)O)c3F)C2)cc1` (some centres unmarked) [Example 9.74], with 6.66; and `CC(=O)N[C@@H](C)c1ccc(O[C@@H]2CCN(c3ccnc(OCCO)c3F)C2)cc1` [Example 9.75], with 6.06. Then `CCOc1nccc(N2CC[C@@H](Oc3ccc([C@H](C)NC(C)=O)cc3)C2)c1Cl` [Example 9.76], with 6.94; and `CC(=O)N[C@@H](C)c1ccc(O[C@@H]2CCN(c3ccnc(OCC(C)(F)F)c3Cl)C2)cc1` [Example 9.77], with 7.23. The compound `CCCOc1nccc(N2CC[C@@H](Oc3ccc([C@H](C)NC(C)=O)cc3)C2)c1Cl` [Example 9.78] had a pIC50 of 7.24. In the case of `COC(C)(C)COc1nccc(N2CC[C@@H](Oc3ccc([C@H](C)NC(C)=O)cc3)C2)c1Cl` [Example 9.79], the pIC50 was 6.88. Turning to `CC(=O)N[C@@H](C)c1ccc(O[C@@H]2CCN(c3ccnc(OC(C)C)c3Cl)C2)cc1` [Example 9.80], the negative logarithm of the IC50 (pIC50) was 6.86. `CC(=O)N[C@@H](C)c1ccc(O[C@@H]2CCN(c3ccnc(OC4CCCC4)c3Cl)C2)cc1` [Example 9.81] showed a negative logarithm of the IC50 (pIC50) of 7.28. This pIC50 is 0.42 log units higher than that of the compound before.

The compound `CC(=O)N[C@@H](C)c1ccc(O[C@@H]2CCN(c3ccnc(OCC4CC4)c3Cl)C2)cc1` [Example 9.82] showed a pIC50 of 7.46. In the case of `CC(=O)N[C@@H](C)c1ccc(O[C@@H]2CCN(c3ccnc(OC(C)C)c3F)C2)cc1` [Example 9.83], the pIC50 was 7.10. This pIC50 lies 0.36 log units lower than the previous one. Then `CC(=O)N[C@@H](C)c1ccc(O[C@@H]2CCN(c3ccnc(OC4CCCC4)c3F)C2)cc1` [Example 9.84], with 7.35; and `CC(=O)N[C@@H](C)c1ccc(O[C@@H]2CCN(c3ccnc(OCC(C)(F)F)c3F)C2)cc1` [Example 9.85], with 7.24.

Regarding `CCOc1nccc(N2CC[C@@H](Oc3ccc([C@H](C)NC(C)=O)cc3)C2)c1F` [Example 9.86], the pIC50 was 6.73. In the case of `COC(C)(C)COc1nccc(N2CC[C@@H](Oc3ccc([C@H](C)NC(C)=O)cc3)C2)c1F` [Example 9.87], the pIC50 is 6.55. As for `CC(=O)N[C@@H](C)c1ccc(O[C@@H]2CCN(c3ccnc(OCC(C)(C)O)c3Cl)C2)cc1` [Example 9.88], the pIC50 was 6.75. Then `CC(=O)N[C@@H](C)c1ccc(O[C@@H]2CCN(c3cccc(N(C)C)n3)C2)cc1` [Example 10.1, N—((S)-1-(4-((R)-1-(6-(Dimethylamino)pyridin-2-yl)pyrrolidin-3-yloxy)phenyl)ethyl)acetamide], with 6.84; and `CC(=O)N[C@@H](C)c1ccc(O[C@@H]2CCN(c3cccc(N(C)CC4CC4)n3)C2)cc1` [Example 10.2], with 6.68; and `CC(=O)N[C@@H](C)c1ccc(O[C@@H]2CCN(c3cccc(N4CCCC4)n3)C2)cc1` [Example 10.3], with 6.82.

Turning to `CC(=O)N[C@@H](C)c1ccc(O[C@@H]2CCN(c3cccc(N4CCCCC4)n3)C2)cc1` [Example 10.4], the pIC50 was 6.58. `CCCN(C)c1cccc(N2CC[C@@H](Oc3ccc([C@H](C)NC(C)=O)cc3)C2)n1` [Example 10.5] had a pIC50 of 6.74. Turning to `CC(=O)N[C@@H](C)c1ccc(O[C@@H]2CCN(c3nc(N4CCCCC4)c(F)cc3F)C2)cc1` [Example 10.6], the pIC50 was 6.08. `CCCN(C)c1nc(N2CC[C@@H](Oc3ccc([C@H](C)NC(C)=O)cc3)C2)c(F)cc1F` [Example 10.7] showed a pIC50 of 6.30. Consider `CC(=O)N[C@@H](C)c1ccc(O[C@@H]2CCN(c3nc(N4CCCC4)c(F)cc3F)C2)cc1` [Example 10.8], for which the pIC50 is 6.23. The compound `CC(=O)N[C@@H](C)c1ccc(O[C@@H]2CCN(c3ccnc(N(C)C4CCCC4)c3)C2)cc1` [Example 10.9] had a pIC50 of 6.07. The compound `CC(=O)N[C@@H](C)c1ccc(O[C@@H]2CCN(c3cccc(N4CCC(C)C4)n3)C2)cc1` (some centres unmarked) [Example 10.10] gave a pIC50 of 6.94. Then `CC(=O)N[C@@H](C)c1ccc(O[C@@H]2CCN(c3cccc(N4CCC4)n3)C2)cc1` [Example 10.11], with 6.68. `CCNc1cccc(N2CC[C@@H](Oc3ccc([C@H](C)NC(C)=O)cc3)C2)n1` [Example 10.12] gave a pIC50 of 6.16. `CC(=O)N[C@@H](C)c1ccc(O[C@@H]2CCN(c3cccc(N4CCOCC4)n3)C2)cc1` [Example 10.13] had a pIC50 of 6.30. `CCN(C)c1nccc(N2CC[C@@H](Oc3ccc([C@H](C)NC(C)=O)cc3)C2)c1F` [Example 10.14] had a pIC50 of 7.35.

In the case of `CC(=O)N[C@@H](C)c1ccc(O[C@@H]2CCN(c3ccnc(N4CCOCC4)c3F)C2)cc1` [Example 10.15], the pIC50 was 6.82. Against the preceding compound, the pIC50 is 0.53 log units lower.

As for `CC(=O)N[C@@H](C)c1ccc(O[C@@H]2CCN(c3ccnc(N4CCCC4)c3F)C2)cc1` [Example 10.16], the pIC50 was 7.46. Then `CC(=O)N[C@@H](C)c1ccc(O[C@@H]2CCN(c3ccnc(N(C)C)c3F)C2)cc1` [Example 10.17], with 7.01.

Take `CC(=O)N[C@@H](C)c1ccc(O[C@@H]2CCN(c3nc(N(C)C)ccc3F)C2)cc1` [Example 10.18]: the pIC50 is 6.07. On to `CCN(CC)c1nccc(N2CC[C@@H](Oc3ccc([C@H](C)NC(C)=O)cc3)C2)c1F` [Example 10.19], for which the pIC50 is 7.46. With `CC(=O)N[C@@H](C)c1ccc(O[C@@H]2CCN(c3cc(N4CCCC4)ncc3F)C2)cc1` [Example 10.20], the pIC50 was 6.78. Compound `CNc1cccc(N2CC[C@@H](Oc3ccc([C@H](C)NC(C)=O)cc3)C2)n1` [Example 10.21] had a pIC50 of 6.02. `CC(=O)N[C@@H](C)c1ccc(O[C@@H]2CCN(c3cc(N4CCOCC4)ncc3F)C2)cc1` [Example 10.22] showed a pIC50 of 6.26. Against the preceding compound, the pIC50 is 0.24 log units higher. As to `CCN(C)c1cc(N2CC[C@@H](Oc3ccc([C@H](C)NC(C)=O)cc3)C2)c(F)cn1` [Example 10.23], the pIC50 is 7.06. This pIC50 is 0.80 log units higher than that of the compound before.

With `CC(=O)N[C@@H](C)c1ccc(O[C@@H]2CCN(c3cc(N(C)C)ncc3F)C2)cc1` [Example 10.24], the pIC50 was 6.55. This pIC50 is 0.51 log units lower than that of the compound before. In turn, `CC(=O)N[C@@H](C)c1ccc(O[C@@H]2CCN(c3cccc(N(C)CC4CCOC4)n3)C2)cc1` (some centres unmarked) [Example 10.25] gave a pIC50 of 6.48. Compound `CC(=O)N[C@@H](C)c1ccc(O[C@@H]2CCN(c3cc(NCC4CC4)ncc3F)C2)cc1` [Example 10.26] gave a pIC50 of 6.12. In turn, `CCN(CC)c1cccc(N2CC[C@@H](Oc3ccc([C@H](C)NC(C)=O)cc3)C2)n1` [Example 10.27] showed a pIC50 of 6.91. In the case of `COCCN(C)c1cccc(N2CC[C@@H](Oc3ccc([C@H](C)NC(C)=O)cc3)C2)n1` [Example 10.28], the pIC50 was 6.85. For `CC(=O)N[C@@H](C)c1ccc(O[C@@H]2CCN(c3cccc(N(C)C4CCCC4)n3)C2)cc1` [Example 10.29], the pIC50 was 6.77. Take `CCN(C)c1cccc(N2CC[C@@H](Oc3ccc([C@H](C)NC(C)=O)cc3)C2)n1` [Example 10.30]: the pIC50 was 6.81. This pIC50 and that of the compound before are within 0.2 log units of each other. The compound `CC(=O)N[C@@H](C)c1ccc(O[C@@H]2CCN(c3cccc(N(C)C(C)C)n3)C2)cc1` [Example 10.31] gave a pIC50 of 6.50. Compound `CC(=O)N[C@@H](C)c1ccc(O[C@@H]2CCN(c3cccc(N4CCC5(CC5)C4)n3)C2)cc1` [Example 10.32] gave a pIC50 of 6.61.

As to `CC(=O)N[C@@H](C)c1ccc(O[C@@H]2CCN(c3cccc(N4CCCC4C)n3)C2)cc1` (some centres unmarked) [Example 10.33], the pIC50 was 6.88. In the case of `CC(=O)N[C@@H](C)c1ccc(O[C@@H]2CCN(c3cccc(N4CCC(F)(F)CC4)n3)C2)cc1` [Example 10.34], the pIC50 was 6.33. As to `CC(=O)N[C@@H](C)c1ccc(O[C@@H]2CCN(c3cccc(N(C)CC(C)O)n3)C2)cc1` (some centres unmarked) [Example 10.35], the pIC50 was 6.07.

Values taken from patent publication US8877741B2, “Pyrrolidine derivatives, pharmaceutical compositions and uses thereof” (Boehringer Ingelheim International GmbH, priority 2013, dated 2014).
